According to ChEMBL document CHEMBL4014321, “Discovery of Pyrazolo[1,5-a]pyrimidine B-Cell Lymphoma 6 (BCL6) Binders and Optimization to High Affinity Macrocyclic Inhibitors” (J Med Chem, 2017):
In brackets after ≈: the same amount, converted by molar mass.

Experiments:
[1] = target: T1, B-cell lymphoma 6 protein (Homo sapiens, UniProt P41182, C67R/C84N/C8Q); assay: Inhibition of SMRT2 H1426W mutant peptide binding to N-terminal His6-tagged human BCL6 BTB domain C8Q/C67R/C84N mutant expressed in Escherichia coli BL21 (DE3) preincubated for 30 mins followed by SMRT2 H1426W mutant peptide addition measured after 60 mins by time-resolved fluorescence resonance energy transfer assay
[2] = target: T1, B-cell lymphoma 6 protein; assay: Binding affinity to N-terminal His6-tagged human BCL6 BTB domain C8Q/C67R/C84N mutant expressed in Escherichia coli BL21 (DE3) by surface plasmon resonance spectrometry
[3] = Octanol-buffer partition co-efficient, log D of the compound at pH 7.4 after 30 mins by shake flask method; format: physicochemical
OCI-Ly3 = assay: Antiproliferative activity against BCL6 dependent human OCI-LY3 cells after 3 days by CellTiter-Glo assay; format: functional; conditions: OCI-Ly3, 72 h
U2932 = assay: Antiproliferative activity against BCL6 dependent human U2932 cells after 3 days by CellTiter-Glo assay; format: functional; conditions: U2932, 72 h
KARPAS-422 = assay: Antiproliferative activity against BCL6 […] human KARPAS422 cells after 3 days by CellTiter-Glo assay; format: functional; conditions: KARPAS-422, 72 h
OCI-LY19 = assay: Antiproliferative activity against BCL6 independent human OCI-LY19 cells after 3 days by CellTiter-Glo assay; format: functional; conditions: OCI-LY19, 72 h
SU-DHL-2 = assay: Antiproliferative activity against BCL6 dependent human SU-DHL-2 cells after 3 days by CellTiter-Glo assay; format: functional; conditions: SU-DHL-2, 72 h
SUD4 = assay: Antiproliferative activity against BCL6 dependent human SUDHL4 cells after 3 days by CellTiter-Glo assay; format: functional; conditions: SU-DHL-4, 72 h
AMO1 = assay: Antiproliferative activity against BCL6 dependent human AMO1 cells after 3 days by CellTiter-Glo assay; format: functional; conditions: AMO1, 72 h
OCI-Ly10 = assay: Antiproliferative activity against BCL6 dependent human OCI-LY10 cells after 3 days by CellTiter-Glo assay; format: functional; conditions: OCI-Ly10, 72 h
OCI-Ly1 = assay: Antiproliferative activity against BCL6 dependent human OCI-LY1 cells after 3 days by CellTiter-Glo assay; format: functional; conditions: OCI-Ly1, 72 h
TMD8 = assay: Antiproliferative activity against BCL6 dependent human TMD8 cells after 3 days by CellTiter-Glo assay; format: functional; conditions: TMD8, 72 h
[4] = Inhibition of human CK2 protein
[5] = target: 5-hydroxytryptamine receptor 1B (Homo sapiens, UniProt P28222); assay: Agonist activity at 5-HT1B receptor (unknown origin)
Chain of 5-hydroxytryptamine receptor 1B (P28222 whole entry): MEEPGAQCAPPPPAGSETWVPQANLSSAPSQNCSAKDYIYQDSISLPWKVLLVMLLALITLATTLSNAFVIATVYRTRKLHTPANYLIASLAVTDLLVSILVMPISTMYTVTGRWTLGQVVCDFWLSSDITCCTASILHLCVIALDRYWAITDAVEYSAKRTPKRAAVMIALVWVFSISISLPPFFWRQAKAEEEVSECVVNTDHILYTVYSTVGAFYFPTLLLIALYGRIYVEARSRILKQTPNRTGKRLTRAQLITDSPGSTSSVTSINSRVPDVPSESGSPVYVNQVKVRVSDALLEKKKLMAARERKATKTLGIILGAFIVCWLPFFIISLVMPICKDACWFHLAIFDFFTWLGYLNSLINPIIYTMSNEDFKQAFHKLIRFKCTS

[6] = Binding affinity to GABA receptor (unknown origin) by radioligand displacement assay; design: species or system Homo sapiens
Homo sapiens [7] = species: Homo sapiens; assay: Inhibition of human CK2 protein at 1 uM relative to control
Homo sapiens [8] = species: Homo sapiens; assay: Selectivity ratio of IC50 for human CK2 protein to IC50 for N-terminal His6-tagged human BCL6 BTB domain C8Q/C67R/C84N mutant
[9] = Apparent permeability in human Caco2 cells; format: ADME, cell-based; conditions: Caco-2
[10] = Aqueous solubility of the compound at pH 7.4 after 24 hrs by LC-UV method; format: physicochemical

SMILES | IC50 [1] [µM] | Kd [2] [µM] | logD at 0.5 h [3] | GI50 (OCI-Ly3) [µM] | GI50 (KARPAS-422) [µM] | GI50 (OCI-LY19) [µM] | GI50 (SU-DHL-2) [µM] | GI50 (OCI-Ly10) [µM] | GI50 (OCI-Ly1) [µM] | IC50 [4] [µM] | EC50 [5] [µM] | Ki [6] [µM] | inhibition (Homo sapiens [7]) [%] | Ratio IC50 (Homo sapiens [8]) | Papp [9] [nm/s] | solubility at 24 h [10] [µM] | GI50 (U2932) [µM] | GI50 (SUD4) [µM] | GI50 (AMO1) [µM] | GI50 (TMD8) [µM]
N#Cc1cnn2c(Nc3ccc4c(c3)CCC(=O)N4)cc(N3CCC[C@H]3CO)nc12 | 0.37 | 0.5 | 2.3 | – | – | – | – | – | – | – | – | – | – | – | – | – | – | – | – | –
O=C(O)C[C@@H]1C[C@H]2CN1c1cc(n3ncc(Cl)c3n1)Nc1cc3c(c(c1)OC/C=C/CO2)N(CC1CC(F)(F)C1)C(=O)CC3 | – | – | – | 20 | 20 | 10 | 20 | 15.8 | 15.8 | 0.16 | – | – | – | – | – | – | 15.8 | 15.8 | 31.6 | 15.8
O=C1CCc2cc3cc(c2N1)OCCCCO[C@H]1C[C@@H](CO)N(C1)c1cc(n2nccc2n1)N3 | – | – | – | 15.8 | 12.6 | 12.6 | 10 | 12.6 | 12.6 | > 10 | – | – | – | – | – | – | 15.8 | 20 | 12.6 | 10
N#Cc1cnn2c3cc(nc12)N1C[C@H](C[C@H]1CO)OCCCCOc1cc(cc2c1NC(=O)CC2)N3 | – | – | – | 12.6 | 20 | 15.8 | 12.6 | 10 | 25.1 | 0.4 | – | – | – | – | – | – | 15.8 | 25.1 | 20 | 15.8
O=C1CCc2cc3cc(c2N1CC1CC1)OC/C=C/CO[C@H]1C[C@@H](CO)N(C1)c1cc(n2ncc(Cl)c2n1)N3 | – | – | – | > 31.6 | > 31.6 | 15.8 | 20 | 20 | > 31.6 | 2.2 | – | – | – | – | – | – | 10 | > 31.6 | > 31.6 | 25.1
O=C1CCc2cc3cc(c2N1Cc1ccncc1)OC/C=C/CO[C@H]1C[C@@H](CO)N(C1)c1cc(n2ncc(Cl)c2n1)N3 | – | – | – | 12.6 | 12.6 | 12.6 | 7.94 | 10 | 10 | > 10 | – | – | – | – | – | – | 10 | 10 | 20 | 10
N#Cc1cnn2c3cc(nc12)N1CC[C@@H](C1)OCCCCOc1cc(cc2c1NC(=O)CC2)N3 | – | – | – | 3.98 | 7.94 | 7.94 | 10 | 7.94 | 7.94 | – | – | – | – | – | – | – | 10 | 10 | 10 | 5.01
Cc1ccc(CN2C(=O)CCc3cc4cc(c32)OC/C=C/CO[C@H]2C[C@@H](CO)N(C2)c2cc(n3ncc(Cl)c3n2)N4)cc1 | – | – | – | 15.8 | > 31.6 | 10 | 6.31 | 12.6 | 7.94 | > 10 | – | – | – | – | – | – | 10 | 20 | 20 | 15.8
O=C1CCc2cc3cc(c2N1CCCN1CCOCC1)OC/C=C/CO[C@H]1C[C@@H](CO)N(C1)c1cc(n2ncc(Cl)c2n1)N3 | – | – | – | 10 | 12.6 | 7.94 | 10 | 7.94 | 10 | 5.9 | – | – | – | – | – | – | 10 | 12.6 | 12.6 | 10
CN1C(=O)CCc2cc3cc(c21)OC/C=C/CO[C@H]1C[C@@H](CO)N(C1)c1cc(n2ncc(Cl)c2n1)N3 | – | – | – | 6.31 | 5.01 | 5.01 | 3.16 | 6.31 | 6.31 | 7 | – | – | – | – | – | – | 5.01 | 6.31 | 5.01 | 3.98
N#Cc1cnn2c3cc(nc12)N1C[C@H](C[C@H]1CO)OC/C=C/COc1cc(cc2c1NC(=O)CC2)N3 | 0.0029 | 0.0065 | 2.2 | 3.98 | 7.94 | 6.31 | 3.16 | 5.01 | 10 | – | – | – | > 60 | 220 | – | – | 6.31 | 7.94 | 15.8 | 7.94
N#Cc1cnn2c(Nc3ccc4c(c3)CCC(=O)N4)cc(N3CCC[C@@H]3CO)nc12 | 0.59 | – | – | – | – | – | – | – | – | – | – | – | – | – | – | – | – | – | – | –
N#Cc1cnn2c(Nc3ccccc3)cc(N3CCCC3)nc12 | > 100 | – | – | – | – | – | – | – | – | – | – | – | – | – | – | – | – | – | – | –
O=C(O)CCN1C(=O)/C(=C2/C(=O)Nc3ccc(Cl)cc32)SC1=S | – | – | – | 20 | 12.6 | 10 | 12.6 | 12.6 | 20 | 0.69 | – | – | – | – | – | – | 12.6 | 10 | 20 | 10
CC(=O)Nc1ccc(-c2cc(NC3CC3)n3ncc(C#N)c3n2)cc1N1CC[C@@H](N(C)C)C1 | – | – | – | – | – | – | – | – | – | 0.012 | – | – | – | – | – | – | – | – | – | –

Continued, in another order:

IC50 [1] [µM] | Kd [2] [µM] | logD at 0.5 h [3] | GI50 (OCI-Ly3) [µM] | GI50 (KARPAS-422) [µM] | GI50 (OCI-LY19) [µM] | GI50 (SU-DHL-2) [µM] | GI50 (OCI-Ly10) [µM] | GI50 (OCI-Ly1) [µM] | IC50 [4] [µM] | EC50 [5] [µM] | Ki [6] [µM] | inhibition (Homo sapiens [7]) [%] | Ratio IC50 (Homo sapiens [8]) | Papp [9] [nm/s] | solubility at 24 h [10] [µM] | SMILES | GI50 (U2932) [µM] | GI50 (SUD4) [µM] | GI50 (AMO1) [µM] | GI50 (TMD8) [µM]
– | – | – | 15.8 | > 31.6 | 10 | 6.31 | 10 | 10 | > 10 | – | – | – | – | – | – | Cc1ccccc1CN1C(=O)CCc2cc3cc(c21)OC/C=C/CO[C@H]1C[C@@H](CO)N(C1)c1cc(n2ncc(Cl)c2n1)N3 | 10 | 6.31 | 25.1 | 20
– | – | – | > 31.6 | 25.1 | 10 | 6.31 | 6.31 | 6.31 | > 10 | – | – | – | – | – | – | COc1cccc(CN2C(=O)CCc3cc4cc(c32)OC/C=C/CO[C@H]2C[C@@H](CO)N(C2)c2cc(n3ncc(Cl)c3n2)N4)c1 | 15.8 | 31.6 | 15.8 | 20
– | – | – | 6.31 | 5.01 | 5.01 | 2.51 | 3.98 | 3.16 | 1.2 | – | – | – | – | – | – | COc1cccc(CN2C(=O)CCc3cc4cc(c32)OC/C=C/CO[C@H]2C[C@@H](CO)N(C2)c2cc(n3ncc(C#N)c3n2)N4)c1 | 3.98 | 6.31 | 10 | 3.98
– | 689 | – | – | – | – | – | – | – | – | – | – | – | – | – | – | CCNc1cc(-c2cccnc2)nc2ccnn12 | – | – | – | –
– | – | – | 3.16 | 5.01 | 1.58 | 3.98 | 2.51 | 6.31 | 1.4 | – | – | – | – | – | – | O=C1CCc2cc3cc(c2N1)OCCCCO[C@H]1C[C@@H](CO)N(C1)c1cc(n2ncc(Cl)c2n1)N3 | 5.01 | 10 | 3.98 | 3.16
> 99 | 319 | – | – | – | – | – | – | – | – | – | – | – | – | – | – | N#Cc1cnn2c(NC3CC3)ccnc12 | – | – | – | –
– | – | – | 12.6 | 25.1 | 10 | 10 | 10 | 12.6 | > 10 | 0.57 | 0.25 | – | – | – | – | O=C1CCc2cc3cc(c2N1Cc1ccccc1)OC/C=C/CO[C@H]1C[C@@H](CO)N(C1)c1cc(n2ncc(Cl)c2n1)N3 | 7.94 | 15.8 | 25.1 | 10
0.35 | 1.1 | – | – | – | – | – | – | – | – | – | – | – | – | – | – | N#Cc1cnn2c(Nc3ccc4c(c3)CCC(=O)N4)cc(N3CCC[C@H]3CC(=O)O)nc12 | – | – | – | –
2.9 | – | – | – | – | – | – | – | – | – | – | – | – | – | – | – | N#Cc1cnn2c(Nc3ccc4c(c3)CCC(=O)N4)cc(N3CCCC3)nc12 | – | – | – | –
– | – | – | 2 | 5.01 | 2 | 3.98 | 1.58 | 3.98 | 7.3 | – | – | – | – | 460 | 31 (≈ 15.4 µg/mL) | O=C1CCc2cc3cc(c2N1)OC/C=C/CO[C@H]1C[C@@H](CO)N(C1)c1cc(n2ncc(Cl)c2n1)N3 | 2.51 | 6.31 | 3.16 | 2.51
– | – | – | 12.6 | 10 | 6.31 | 7.94 | 7.94 | 7.94 | 2.1 | – | – | – | – | – | – | O=C1CCc2cc3cc(c2N1CC1CC(F)(F)C1)OC/C=C/CO[C@H]1C[C@@H](CO)N(C1)c1cc(n2ncc(Cl)c2n1)N3 | 6.31 | 10 | 25.1 | 10
> 99 | – | – | – | – | – | – | – | – | – | – | – | – | – | – | – | N#Cc1cnn2c(NC3CC3)cc(N3CCCC3)nc12 | – | – | – | –
